According to patent US7709471B2, “Compounds” (AstraZeneca AB, priority 2006, dated 2010):

These compounds were tested against recombinant Plk1 (Homo sapiens, UniProt P53350) (assay: In Vitro Plk1 Enzyme Assay (SPA, GST-Cdc25C phosphorylation)). Details: ATP 64 nM, 90 minutes, read-out: IC50 (Plk1 enzyme inhibition).
Format: biochemical

recombinant Plk1, sequence (P53350 whole entry): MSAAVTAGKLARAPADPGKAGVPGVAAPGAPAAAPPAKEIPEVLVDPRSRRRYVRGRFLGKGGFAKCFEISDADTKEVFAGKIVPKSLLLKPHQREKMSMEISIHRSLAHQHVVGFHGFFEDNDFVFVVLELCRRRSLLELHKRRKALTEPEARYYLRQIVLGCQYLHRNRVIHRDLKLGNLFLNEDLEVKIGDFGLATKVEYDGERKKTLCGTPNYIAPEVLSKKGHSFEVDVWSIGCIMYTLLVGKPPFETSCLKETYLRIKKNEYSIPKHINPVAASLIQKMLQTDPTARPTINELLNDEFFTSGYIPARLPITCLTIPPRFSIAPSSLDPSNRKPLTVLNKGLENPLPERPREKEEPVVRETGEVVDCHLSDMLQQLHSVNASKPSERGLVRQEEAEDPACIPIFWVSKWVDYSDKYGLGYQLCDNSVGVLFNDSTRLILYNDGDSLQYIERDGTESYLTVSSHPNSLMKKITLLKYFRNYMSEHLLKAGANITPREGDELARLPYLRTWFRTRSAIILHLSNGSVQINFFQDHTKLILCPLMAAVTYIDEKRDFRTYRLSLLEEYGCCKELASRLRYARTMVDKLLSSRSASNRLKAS

Row | Structure (SMILES) | IC50 [µM]
1 | CNS(=O)(=O)c1ccccc1Nc1ncc2c(n1)N(C1CCCC1)CCC(=O)N2C [Example 155, 2-[(6-cyclopentyl-2-methyl-3-oxo-2,6,8,10-tetrazabicyclo[5.4.0]undeca-8,10,12-trien-9-yl)amino]-N-methyl-benzenesulfonamide] | < 100
2 | CN1C(=O)CCN(C2CCCC2)c2nc(Nc3ccccc3NCCN3CCOCC3)ncc21 [Example 156, 6-cyclopentyl-2-methyl-9-[[2-(2-morpholin-4-ylethylamino)phenyl]amino]-2,6,8,10-tetrazabicyclo[5.4.0]undeca-8,10,12-trien-3-one] | < 100
3 | CN1C(=O)CCN(C2CCCC2)c2nc(Nc3ccccc3Cc3ccccc3)ncc21 [Example 157, 9-[(2-benzylphenyl)amino]-6-cyclopentyl-2-methyl-2,6,8,10-tetrazabicyclo[5.4.0]undeca-8,10,12-trien-3-one] | < 100
4 | CN1C(=O)CCN(C2CCCC2)c2nc(Nc3ccccc3CN3CCOCC3)ncc21 [Example 160, 6-cyclopentyl-2-methyl-9-[[2-(morpholin-4-ylmethyl)phenyl]amino]-2,6,8,10-tetrazabicyclo[5.4.0]undeca-8,10,12-trien-3-one] | < 100
5 | COc1cccc(Nc2ncc3c(n2)N(C2CCCC2)CCC(=O)N3C)c1 [Example 161, 6-cyclopentyl-9-[(3-methoxyphenyl)amino]-2-methyl-2,6,8,10-tetrazabicyclo[5.4.0]undeca-8,10,12-trien-3-one] | < 1
6 | CCOc1cccc(Nc2ncc3c(n2)N(C2CCCC2)CCC(=O)N3C)c1 [Example 162, 6-cyclopentyl-9-[(3-ethoxyphenyl)amino]-2-methyl-2,6,8,10-tetrazabicyclo[5.4.0]undeca-8,10,12-trien-3-one] | < 1
7 | CSc1cccc(Nc2ncc3c(n2)N(C2CCCC2)CCC(=O)N3C)c1 [Example 163, 6-cyclopentyl-2-methyl-9-[(3-methylsulfanylphenyl)amino]-2,6,8,10-tetrazabicyclo[5.4.0]undeca-8,10,12-trien-3-one] | < 100
8 | CN1C(=O)CCN(C2CCCC2)c2nc(Nc3cccc(C#N)c3)ncc21 [Example 164, 3-[(6-cyclopentyl-2-methyl-3-oxo-2,6,8,10-tetrazabicyclo[5.4.0]undeca-8,10,12-trien-9-yl)amino]benzonitrile] | < 100
9 | CCc1cccc(Nc2ncc3c(n2)N(C2CCCC2)CCC(=O)N3C)c1 [Example 166, 6-cyclopentyl-9-[(3-ethylphenyl)amino]-2-methyl-2,6,8,10-tetrazabicyclo[5.4.0]undeca-8,10,12-trien-3-one] | < 100
10 | C#Cc1cccc(Nc2ncc3c(n2)N(C2CCCC2)CCC(=O)N3C)c1 [Example 168, 6-cyclopentyl-9-[(3-ethynylphenyl)amino]-2-methyl-2,6,8,10-tetrazabicyclo[5.4.0]undeca-8,10,12-trien-3-one] | < 100
11 | CN1C(=O)CCN(C2CCCC2)c2nc(Nc3cccc(C(=O)c4ccccc4)c3)ncc21 [Example 169, 9-[(3-benzoylphenyl)amino]-6-cyclopentyl-2-methyl-2,6,8,10-tetrazabicyclo[5.4.0]undeca-8,10,12-trien-3-one] | < 100
12 | CN1C(=O)CCN(C2CCCC2)c2nc(Nc3cccc(S(C)(=O)=O)c3)ncc21 [Example 172, 6-cyclopentyl-2-methyl-9-[(3-methylsulfonylphenyl)amino]-2,6,8,10-tetrazabicyclo[5.4.0]undeca-8,10,12-trien-3-one] | < 100
13 | CC(C)c1cccc(Nc2ncc3c(n2)N(C2CCCC2)CCC(=O)N3C)c1 [Example 174, 6-cyclopentyl-2-methyl-9-[(3-propan-2-ylphenyl)amino]-2,6,8,10-tetrazabicyclo[5.4.0]undeca-8,10,12-trien-3-one] | < 100
14 | CN1C(=O)CCN(C2CCCC2)c2nc(Nc3cccc(S(=O)(=O)N4CCOCC4)c3)ncc21 [Example 183, 6-cyclopentyl-2-methyl-9-[(3-morpholin-4-ylsulfonylphenyl)amino]-2,6,8,10-tetrazabicyclo[5.4.0]undeca-8,10,12-trien-3-one] | < 100
15 | CNC(=O)c1ccc(Nc2ncc3c(n2)N(C2CCCC2)CCC(=O)N3C)c(OCCOC)c1 [Example 196, 4-[(6-cyclopentyl-2-methyl-3-oxo-2,6,8,10-tetrazabicyclo[5.4.0]undeca-8,10,12-trien-9-yl)amino]-3-(2-methoxyethoxy)-N-methyl-benzamide] | < 1
16 | COc1cc(C(=O)NC2CCN(C)CC2)ccc1Nc1ncc2c(n1)N(CC(C)C)CCC(=O)N2C [Example 211, 3-methoxy-4-[[2-methyl-6-(2-methylpropyl)-3-oxo-2,6,8,10-tetrazabicyclo[5.4.0]undeca-7,9,11-trien-9-yl]amino]-N-(1-methyl-4-piperidyl)benzamide] | < 0.3

Row | Structure (SMILES) | IC50 [µM]
17 | COc1cc(C(=O)NC2CCN(C)CC2)ccc1Nc1ncc2c(n1)N(Cc1csc(C)n1)CCC(=O)N2C [Example 216, 3-methoxy-4-[[2-methyl-6-[(2-methyl1,3-thiazol-4-yl)methyl]-3-oxo-2,6,8,10-tetrazabicyclo[5.4.0]undeca-7,9,11-trien-9-yl]amino]-N-(1-methyl-4-piperidyl)benzamide] | < 1
18 | CC(C)N1CCC(=O)N(C)c2cnc(Nc3ccc(C(=O)NCC(C)(C)CN(C)C)cc3)nc21 [Example 222, N-(3-dimethylamino-2,2-dimethyl-propyl)-4-[(2-methyl-3-oxo-6-propan-2-yl-2,6,8,10-tetrazabicyclo[5.4.0]undeca-7,9,11-trien-9-yl)amino]benzamide] | < 0.3
19 | CN(C)CC(C)(C)CNC(=O)c1ccc(Nc2ncc3c(n2)N(c2ccccc2)CCC(=O)N3C)c(Cl)c1 [Example 225, 3-chloro-N-(3-dimethylamino-2,2-dimethyl-propyl)-4-[(2-methyl-3-oxo-6-phenyl-2,6,8,10-tetrazabicyclo[5.4.0]undeca-8,10,12-trien-9-yl)amino]benzamide] | < 1
20 | CN1C(=O)CCN(c2ccccc2)c2nc(Nc3ccc(C(=O)NCCN4CCOCC4)cc3Cl)ncc21 [Example 226, 3-chloro-4-[(2-methyl-3-oxo-6-phenyl-2,6,8,10-tetrazabicyclo[5.4.0]undeca-8,10,12-trien-9-yl)amino]-N-(2-morpholin-4-ylethyl)benzamide] | < 1
21 | O=C1CCN(c2ccccc2)c2nc(Nc3ccc(C(=O)NCCN4CCOCC4)cc3Cl)ncc2N1 [Example 247, 3-chloro-N-(2-morpholin-4-ylethyl)-4-[(3-oxo-6-phenyl-2,6,8,10-tetrazabicyclo[5.4.0]undeca-7,9,11-trien-9-yl)amino]benzamide] | < 100
22 | O=C1CCN(c2ccccc2)c2nc(Nc3ccc(C(=O)NCCN4CCOCC4)cc3)ncc2N1 [Example 249, N-(2-morpholin-4-ylethyl)-4-[(3-oxo-6-phenyl-2,6,8,10-tetrazabicyclo[5.4.0]undeca-7,9,11-trien-9-yl)amino]benzamide] | < 100
23 | COc1cc(C(=O)NCCN2CCOCC2)ccc1Nc1ncc2c(n1)N(C1CCCC1)CCC(=O)N2 [Example 250, 4-[(6-cyclopentyl-3-oxo-2,6,8,10-tetrazabicyclo[5.4.0]undeca-8,10,12-trien-9-yl)amino]-3-methoxy-N-(2-morpholin-4-ylethyl)benzamide] | < 1
24 | COc1cc(C(=O)NC2CCN(C)CC2)ccc1Nc1ncc2c(n1)N(c1ccccc1)CCC(=O)N2 [Example 251, 3-methoxy-N-(1-methyl-4-piperidyl)-4-[(3-oxo-6-phenyl-2,6,8,10-tetrazabicyclo[5.4.0]undeca-8,10,12-trien-9-yl)amino]benzamide] | < 100
25 | CN1CCC(NC(=O)c2ccc(Nc3ncc4c(n3)N(C3CCCC3)CCC(=O)N4)cc2)CC1 [Example 254, 4-[(6-cyclopentyl-3-oxo-2,6,8,10-tetrazabicyclo[5.4.0]undeca-8,10,12-trien-9-yl)amino]-N-(1-methyl-4-piperidyl)benzamide] | < 100
26 | CN(C)CC(C)(C)CNC(=O)c1ccc(Nc2ncc3c(n2)N(C2CCCC2)CCC(=O)N3)c(Cl)c1 [Example 255, 3-chloro-4-[(6-cyclopentyl-3-oxo-2,6,8,10-tetrazabicyclo[5.4.0]undeca-8,10,12-trien-9-yl)amino]-N-(3-dimethylamino-2,2-dimethyl-propyl)benzamide] | < 100
27 | COCC(C)N1CCC(=O)Nc2cnc(Nc3ccc(C(=O)NC4CCN(C)CC4)cc3OC)nc21 (centres unmarked) [Example 258, 3-methoxy-4-[[6-(1-methoxypropan-2-yl)-3-oxo-2,6,8,10-tetrazabicyclo[5.4.0]undeca-7,9,11-trien-9-yl]amino]-N-(1-methyl-4-piperidyl)benzamide] | < 100
28 | CCN1C(=O)CCN(C2CCCC2)c2nc(Nc3ccc(C(=O)NC4CCN(C)CC4)cc3OC)ncc21 [Example 259, 4-[(6-cyclopentyl-2-ethyl-3-oxo-2,6,8,10-tetrazabicyclo[5.4.0]undeca-8,10,12-trien-9-yl)amino]-3-methoxy-N-(1-methyl-4-piperidyl)benzamide] | < 1
29 | CN1CCC(NC(=O)c2csc(Nc3ncc4c(n3)N(C3CCCC3)CCC(=O)N4C)n2)CC1 [Example 261, 2-[(6-cyclopentyl-2-methyl-3-oxo-2,6,8,10-tetrazabicyclo[5.4.0]undeca-8,10,12-trien-9-yl)amino]-N-(1-methyl-4-piperidyl)1,3-thiazole-4-carboxamide] | < 100
30 | Cc1nc(Nc2ncc3c(n2)N(C2CCCC2)CCC(=O)N3C)sc1C(=O)NC1CCN(C)CC1 [Example 262, 2-[(6-cyclopentyl-2-methyl-3-oxo-2,6,8,10-tetrazabicyclo[5.4.0]undeca-8,10,12-trien-9-yl)amino]-4-methyl-N-(1-methyl-4-piperidyl)1,3-thiazole-5-carboxamide] | < 1
31 | CN1C(=O)CCN(C2CCCC2)c2nc(Nc3ccc(Cl)nc3)ncc21 [Example 266, 9-[(6-chloropyridin-3-yl)amino]-6-cyclopentyl-2-methyl-2,6,8,10-tetrazabicyclo[5.4.0]undeca-8,10,12-trien-3-one] | < 100
32 | COc1ccc(Nc2ncc3c(n2)N(C2CCCC2)CCC(=O)N3C)cn1 [Example 267, 6-cyclopentyl-9-[(6-methoxypyridin-3-yl)amino]-2-methyl-2,6,8,10-tetrazabicyclo[5.4.0]undeca-8,10,12-trien-3-one] | < 1
